Results reported in ChEMBL document CHEMBL1201862, “PubChem BioAssay data set” (2004).
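Compound exposure: 48 hours, 5 concentrations, 96-well plates. Abbreviation: GI50, concentration required for 50% inhibition of growth.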 Activity calls are given as the source filed them. Cut-off read from the data, not from the text of the source: active = GI50 up to about 1.1 µM and inactive = higher.

Legend:
Test in all cases: inhibition of tumour cell growth, NCI panel, 48 h
786-0 = tested on: 786-0
DU-145 = tested on: DU-145
UACC-62 = tested on: UACC-62
NCI-H226 = tested on: NCI-H226
SF-295 = tested on: SF-295
EKVX = tested on: EKVX
TK-10 = tested on: TK-10
RPMI-8226 = tested on: RPMI-8226
SK-OV-3 = tested on: SK-OV-3
MOLT-4 = tested on: MOLT-4
HOP-92 = tested on: HOP-92
PC-3 = tested on: PC-3
HCC 2998 = tested on: HCC 2998
NCI-H522 = tested on: NCI-H522
MDA-MB-435 = tested on: MDA-MB-435
OVCAR-4 = tested on: OVCAR-4
KM12 = tested on: KM12
COLO 205 = tested on: COLO 205
HCT-15 = tested on: HCT-15
SNB-19 = tested on: SNB-19

SMILES | GI50 (786-0) | GI50 (DU-145) | GI50 (UACC-62) | GI50 (NCI-H226) | GI50 (SF-295) | GI50 (EKVX) | GI50 (TK-10) | GI50 (RPMI-8226) | GI50 (SK-OV-3) | GI50 (MOLT-4) | GI50 (HOP-92) | GI50 (PC-3) | GI50 (HCC 2998) | GI50 (NCI-H522) | GI50 (MDA-MB-435) | GI50 (OVCAR-4) | GI50 (KM12) | GI50 (COLO 205) | GI50 (HCT-15) [µM] | GI50 (SNB-19)
O=C1C(NCCO)=C(N2CC2)C(=O)C(NCCO)=C1N1CC1 | 24.4 µM (inactive) | > 77.3 µM (inactive) | 25.1 µM (inactive) | 57.5 µM (inactive) | 26.5 µM (inactive) | > 81.1 µM (inactive) | > 100 µM (inactive) | 44.6 µM (inactive) | > 70.6 µM (inactive) | 12.2 µM (inactive) | > 73.1 µM (inactive) | > 100 µM (inactive) | > 100 µM (inactive) | 31.3 µM (inactive) | > 100 µM (inactive) | > 57.4 µM (inactive) | 74.5 µM (inactive) | > 67.6 µM (inactive) | 57.5 | 60.7 µM (inactive)
C=C1c2nc3ccccc3n2C=C(c2ccccc2)N1c1ccc(C)cc1 | 45.3 µM (inactive) | > 100 µM (inactive) | 64.4 µM (inactive) | 68.7 µM (inactive) | > 100 µM (inactive) | > 100 µM (inactive) | 79.3 µM (inactive) | 19.5 µM (inactive) | > 100 µM (inactive) | 20.6 µM (inactive) | 41.4 µM (inactive) | 50.4 µM (inactive) | 9.31 µM (inactive) | 35.1 µM (inactive) | 33.2 µM (inactive) | 71.8 µM (inactive) | 22.7 µM (inactive) | 73.5 µM (inactive) | 35.4 | > 100 µM (inactive)
CCN1C/C(=C\c2cc(OC)c(OC)c(OC)c2)C2=NN(c3ccccc3)C(c3cc(OC)c(OC)c(OC)c3)C2C1 (stereo not given) | 0.398 µM (active) | 2.99 µM (inactive) | 20.1 µM (inactive) | 4.68 µM (inactive) | 2.54 µM (inactive) | 2.09 µM (inactive) | 1.65 µM (inactive) | 1.13 µM (inactive) | 1.74 µM (inactive) | 5.05 µM (inactive) | 2.92 µM (inactive) | 1.08 µM (active) | 1.07 µM (active) | 1.13 µM (inactive) | 1.52 µM (inactive) | 1.91 µM (inactive) | 4.34 µM (inactive) | 2.36 µM (inactive) | 5.58 | 1.97 µM (inactive)
N=C(N)NS(=O)(=O)c1ccc(NNC(=O)c2cccc3c(O)c4ccccc4nc23)cc1 | 38.4 µM (inactive) | 32.7 µM (inactive) | 30.3 µM (inactive) | 25.5 µM (inactive) | 35.7 µM (inactive) | 23.4 µM (inactive) | 44.8 µM (inactive) | 37.2 µM (inactive) | 29.6 µM (inactive) | 30.2 µM (inactive) | 25.3 µM (inactive) | 28.4 µM (inactive) | 18.1 µM (inactive) | 21.6 µM (inactive) | 25.5 µM (inactive) | 29.5 µM (inactive) | 21.8 µM (inactive) | 24.7 µM (inactive) | 23 | 48.6 µM (inactive)
CCCCCCCCCCCCCC/C(C(=O)O)=C(\C)C(=O)O | > 100 µM (inactive) | > 100 µM (inactive) | > 100 µM (inactive) | > 100 µM (inactive) | > 100 µM (inactive) | > 100 µM (inactive) | > 100 µM (inactive) | 40.4 µM (inactive) | > 100 µM (inactive) | > 100 µM (inactive) | > 100 µM (inactive) | 38.2 µM (inactive) | > 100 µM (inactive) | > 100 µM (inactive) | > 100 µM (inactive) | > 100 µM (inactive) | > 100 µM (inactive) | > 100 µM (inactive) | > 100 | > 100 µM (inactive)
COc1cc2c(cc1OCCN1C(=O)c3cccc4cccc(c34)C1=O)N=C[C@@H]1CCCN1C2=O | 7.96 µM (inactive) | 8.89 µM (inactive) | 7.93 µM (inactive) | 7.26 µM (inactive) | 13.7 µM (inactive) | 9.68 µM (inactive) | 8.05 µM (inactive) | 9.27 µM (inactive) | 24.3 µM (inactive) | 1.01 µM (active) | 7.76 µM (inactive) | 7.08 µM (inactive) | 7.74 µM (inactive) | 1.17 µM (inactive) | 10.7 µM (inactive) | 16 µM (inactive) | 14.3 µM (inactive) | 8.32 µM (inactive) | 9.31 | 12.4 µM (inactive)
COc1cccc(CCNc2c(C#N)c3nc4ccccc4n3c3ccccc23)c1 | 0.541 µM (active) | 2.29 µM (inactive) | 0.316 µM (active) | 1.58 µM (inactive) | 0.364 µM (active) | 2.09 µM (inactive) | 4.6 µM (inactive) | 0.426 µM (active) | 1.18 µM (inactive) | 0.769 µM (active) | 29.6 µM (inactive) | 1.11 µM (active) | 0.643 µM (active) | 0.063 µM (active) | 0.118 µM (active) | 2.79 µM (inactive) | 0.258 µM (active) | 0.447 µM (active) | 0.423 | 0.787 µM (active)
COC(=O)c1ccc2c(c1)sc1nc(-c3ccc(OC)cc3)cn12 | > 100 µM (inactive) | > 100 µM (inactive) | > 100 µM (inactive) | > 100 µM (inactive) | > 100 µM (inactive) | > 100 µM (inactive) | > 100 µM (inactive) | 32.4 µM (inactive) | > 100 µM (inactive) | > 100 µM (inactive) | 24.7 µM (inactive) | > 100 µM (inactive) | > 100 µM (inactive) | 62.2 µM (inactive) | 42.8 µM (inactive) | > 100 µM (inactive) | 56.1 µM (inactive) | 31.9 µM (inactive) | > 100 | 66.5 µM (inactive)
CC1=NN=C(N)NC1=CC(Sc1ccc(Cl)cc1)c1c(O)ccc2ccccc12 (stereo not given) | 25.5 µM (inactive) | 16.1 µM (inactive) | 9.35 µM (inactive) | 4.55 µM (inactive) | 4.21 µM (inactive) | 18 µM (inactive) | 26.5 µM (inactive) | 13.5 µM (inactive) | 18.3 µM (inactive) | 21.1 µM (inactive) | 20.3 µM (inactive) | 16.1 µM (inactive) | 16.7 µM (inactive) | 15.5 µM (inactive) | 19.6 µM (inactive) | 16.8 µM (inactive) | 14.5 µM (inactive) | 16.9 µM (inactive) | 16.3 | 20.6 µM (inactive)
O=C1NC(=O)C2C3C=CC(C12)C1C2C(=O)NC(=O)C2C31 (stereo not given) | 682 µM (inactive) | > 250 µM (inactive) | 107 µM (inactive) | 177 µM (inactive) | 174 µM (inactive) | 234 µM (inactive) | > 250 µM (inactive) | 185 µM (inactive) | 98.6 µM (inactive) | > 100 µM (inactive) | 128 µM (inactive) | 217 µM (inactive) | 221 µM (inactive) | 151 µM (inactive) | > 1000 µM (inactive) | 223 µM (inactive) | 220 µM (inactive) | 82.4 µM (inactive) | 237 | 149 µM (inactive)
COC(=O)C1OC(O[C@H]2CC[C@]3(C)[C@H]4CC=C5[C@@H]6CC(C)(C)CC[C@]6(C(=O)OC6OCC(O)C(O)C6OC6OC(C)C(OC7OCC(OC8OCC(O)C(O)C8O)C(O)C7O)C(O)C6O)[C@H](O)C[C@@]5(C)[C@]4(C)CC[C@H]3C2(C)C)C(O)C(O)C1O (stereo not given in full) | 6.32 µM (inactive) | 2.13 µM (inactive) | 3.29 µM (inactive) | 1.52 µM (inactive) | 3.05 µM (inactive) | 2.32 µM (inactive) | 9.51 µM (inactive) | 5.5 µM (inactive) | 14.9 µM (inactive) | 15.7 µM (inactive) | 1.91 µM (inactive) | 4.19 µM (inactive) | 1.63 µM (inactive) | 2.66 µM (inactive) | 1.95 µM (inactive) | 9.31 µM (inactive) | 3.72 µM (inactive) | 1.66 µM (inactive) | 10.6 | 3.08 µM (inactive)
CCOC(=O)/C(C#N)=C/N(CC)/N=C/c1ccccc1 | 86.9 µM (inactive) | > 100 µM (inactive) | > 100 µM (inactive) | > 100 µM (inactive) | 69.8 µM (inactive) | > 100 µM (inactive) | > 100 µM (inactive) | > 100 µM (inactive) | > 100 µM (inactive) | > 100 µM (inactive) | > 100 µM (inactive) | > 100 µM (inactive) | > 100 µM (inactive) | > 100 µM (inactive) | > 100 µM (inactive) | > 100 µM (inactive) | > 100 µM (inactive) | > 100 µM (inactive) | > 100 | > 100 µM (inactive)
c1cc(-c2ccc(-c3ccc(-c4ccc(-c5cccc6nsnc56)[nH]4)c4nsnc34)[nH]2)c2nsnc2c1 | > 100 µM (inactive) | > 100 µM (inactive) | > 100 µM (inactive) | > 100 µM (inactive) | > 100 µM (inactive) | > 100 µM (inactive) | > 100 µM (inactive) | > 100 µM (inactive) | > 100 µM (inactive) | > 100 µM (inactive) | > 100 µM (inactive) | > 100 µM (inactive) | > 100 µM (inactive) | > 100 µM (inactive) | > 100 µM (inactive) | > 100 µM (inactive) | > 100 µM (inactive) | > 100 µM (inactive) | > 100 | > 100 µM (inactive)
Nc1nonc1-c1noc(-c2nonc2N)[n+]1[O-] | 37.1 µM (inactive) | > 100 µM (inactive) | 66.7 µM (inactive) | 49.5 µM (inactive) | > 100 µM (inactive) | 30.8 µM (inactive) | 43 µM (inactive) | 54.6 µM (inactive) | > 100 µM (inactive) | 54.6 µM (inactive) | 69.8 µM (inactive) | 69.7 µM (inactive) | > 100 µM (inactive) | 13.1 µM (inactive) | 57 µM (inactive) | > 100 µM (inactive) | 58.9 µM (inactive) | > 10 µM (inactive) | 19.7 | > 100 µM (inactive)
